# Laboratory results: ChEMBL document CHEMBL1151098, “Design of pyrrolo-1,4-benzoxazine derivatives as inhibitors of 5-lipoxygenase and PAF antagonists with anthihistaminic properties” (Bioorg Med Chem Lett, 1994)
# The source made the active and inactive calls. No cut-off for these calls is given here.
# How the values were obtained:
# [1] = molecular target: T1, Polyunsaturated fatty acid 5-lipoxygenase (Rattus norvegicus, UniProt P12527); experiment: Inhibitory activity against 5-lipoxygenase in rat neutrophils as inhibition of A 23,187-induced LTB4 production
# T1 sequence (P12527 whole entry): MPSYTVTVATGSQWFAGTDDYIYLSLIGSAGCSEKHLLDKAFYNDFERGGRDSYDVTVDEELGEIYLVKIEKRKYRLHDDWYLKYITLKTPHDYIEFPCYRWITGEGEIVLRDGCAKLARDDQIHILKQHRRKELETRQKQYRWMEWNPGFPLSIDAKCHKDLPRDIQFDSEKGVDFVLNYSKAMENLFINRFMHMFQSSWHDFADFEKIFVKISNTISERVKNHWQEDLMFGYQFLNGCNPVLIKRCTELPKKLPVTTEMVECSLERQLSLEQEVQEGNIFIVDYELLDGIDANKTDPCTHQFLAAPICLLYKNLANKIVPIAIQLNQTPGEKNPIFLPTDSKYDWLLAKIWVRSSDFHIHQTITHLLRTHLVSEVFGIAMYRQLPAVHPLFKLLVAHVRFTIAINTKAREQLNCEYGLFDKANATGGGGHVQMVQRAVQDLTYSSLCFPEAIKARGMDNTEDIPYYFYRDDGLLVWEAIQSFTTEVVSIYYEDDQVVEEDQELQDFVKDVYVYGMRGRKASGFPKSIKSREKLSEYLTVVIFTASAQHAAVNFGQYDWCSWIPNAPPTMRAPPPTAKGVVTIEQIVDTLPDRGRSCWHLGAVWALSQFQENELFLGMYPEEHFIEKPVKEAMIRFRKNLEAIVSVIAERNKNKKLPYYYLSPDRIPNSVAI
# [2] = species: Oryctolagus cuniculus; experiment: Inhibitory activity of PAF-induced aggregation was determined on rabbit platelets; format: functional
# [3] = In vivo inhibitory activity of histamine induced cutaneous reaction was determined at a conc. of 2.1E-5 mol/ Kg; format: functional
# [4] = In vivo inhibitory activity of histamine induced cutaneous reaction was determined at a conc. of 2.1E-5 mol/ Kg; Not active; format: functional, organism-based
# [5] = species: Oryctolagus cuniculus; experiment: Inhibitory activity of PAF-induced aggregation was determined on rabbit platelets; Not active at 10e-5 M; format: functional
Structure (SMILES),IC50 [1],IC50 [2],Inhibition [3],inhibition [4],IC50 [5]
Cc1ccnc(N2CCN(CCC3Cn4c(-c5cc(C)c(O)c(C)c5)c(C)c5cc(O)cc(c54)O3)CC2)c1 (stereo not drawn),0.29 µM,0.45 µM,37%,–,–
COc1cc2c3c(c1)c(C)c(-c1cc(C)c(O)c(C)c1)n3CC(CCN1CCN(c3cc(C)ccn3)CC1)O2 (stereo not drawn),7.6 µM,2.9 µM,32%,–,–
Cc1cccc(N2CCN(CCC3Cn4c(-c5ccc(O)cc5)c(C)c5cccc(c54)O3)CC2)n1 (stereo not drawn),3.3 µM,10.2 µM,39%,–,–
Cc1cccnc1N1CCN(CCC2Cn3c(-c4ccc(O)cc4)c(C)c4cccc(c43)O2)CC1 (stereo not drawn),2.3 µM,7.2 µM,57%,–,–
Cc1ccnc(N2CCN(CCC3Cn4c(-c5ccc(O)c(O)c5)c(C)c5cccc(c54)O3)CC2)c1 (stereo not drawn),1.9 µM,4.7 µM,–,inactive,–
Cc1c(-c2ccc(O)cc2)n2c3c(cccc13)OC(CCN1CCN(c3ccccn3)CC1)C2 (stereo not drawn),2.2 µM,8.1 µM,47%,–,–
Cc1ccnc(N2CCN(CCC3Cn4c(-c5ccc(O)cc5)c(C)c5cccc(c54)O3)CC2)c1 (stereo not drawn),3 µM,2.7 µM,10%,–,–
COc1cc(-c2c(C)c3cccc4c3n2CC(CCN2CCN(c3cc(C)ccn3)CC2)O4)ccc1O (stereo not drawn),3.2 µM,5 µM,2%,–,–
Cc1ccnc(N2CCN(CCC3Cn4c(-c5cc(C)c(O)c(C)c5)c(C)c5cccc(c54)O3)CC2)c1 (stereo not drawn),1.5 µM,1.6 µM,15%,–,–
COc1ccc2[nH]c(-c3cc(C)c(O)c(C)c3)c(C)c2c1,0.11 µM,–,–,inactive,Not Active
Cc1ccc(N2CCN(CCC3Cn4c(-c5ccc(O)cc5)c(C)c5cccc(c54)O3)CC2)nc1 (stereo not drawn),3.1 µM,9.9 µM,58%,–,–
